Assay results taken from the supplement of paper PMC10307832.

How the values were obtained:
Experiment in all cases: relative viability (nuclei count vs DMSO), 5 days (fraction); higher = more cells survive
R406 + Luminespib = compound: COc1cc(Nc2ncc(F)c(Nc3ccc4c(n3)NC(=O)C(C)(C)O4)n2)cc(OC)c1OC [R406] + CCNC(=O)c1noc(-c2cc(C(C)C)c(O)cc2O)c1-c1ccc(CN2CCOCC2)cc1 [Luminespib] (partner 0.01 µM)
In short: (§1)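 Lung cancer cell lines in 1536-well plates got either a single drug or a fixed anchor-drug dose together with five library-drug doses (not always all listed) in √10 steps, by pin tool, on the day after seeding. Nuclei were counted after 5 days, and relative viability is the treated-to-vehicle ratio of nuclei counts. Values are medians of duplicate plates.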

R406 + Pictilisib = compound: COc1cc(Nc2ncc(F)c(Nc3ccc4c(n3)NC(=O)C(C)(C)O4)n2)cc(OC)c1OC [R406] + CS(=O)(=O)N1CCN(Cc2cc3nc(-c4cccc5[nH]ncc45)nc(N4CCOCC4)c3s2)CC1 [Pictilisib] (partner 1 µM)
In short: as §1

Daporinad + AZD7762 = compound: O=C(/C=C/c1cccnc1)NCCCCC1CCN(C(=O)c2ccccc2)CC1 [Daporinad] + NC(=O)Nc1cc(-c2cccc(F)c2)sc1C(=O)N[C@H]1CCCNC1 [AZD7762] (partner 0.2 µM)
In short: as §1

Daporinad + OSI-027 = compound: O=C(/C=C/c1cccnc1)NCCCCC1CCN(C(=O)c2ccccc2)CC1 [Daporinad] + COc1cccc2cc(-c3nc([C@H]4CC[C@H](C(=O)O)CC4)n4ncnc(N)c34)[nH]c12 [OSI-027] (partner 0.5 µM)
In short: as §1

Cell Line	relative viability (R406 + Luminespib; first compound 0.08 µM)	relative viability (R406 + Luminespib; first compound 0.253 µM)	relative viability (R406 + Luminespib; first compound 0.8 µM)	relative viability (R406 + Luminespib; first compound 2.53 µM)	relative viability (R406 + Luminespib; first compound 8 µM)	relative viability (R406 + Pictilisib; first compound 0.08 µM)	relative viability (R406 + Pictilisib; first compound 0.253 µM)	relative viability (R406 + Pictilisib; first compound 0.8 µM)	relative viability (R406 + Pictilisib; first compound 2.53 µM)	relative viability (R406 + Pictilisib; first compound 8 µM)	relative viability (Daporinad + AZD7762; first compound 0.0005 µM)	relative viability (Daporinad + AZD7762; first compound 0.001581 µM)	relative viability (Daporinad + AZD7762; first compound 0.005 µM)	relative viability (Daporinad + AZD7762; first compound 0.01581 µM)	relative viability (Daporinad + OSI-027; first compound 0.0005 µM)	relative viability (Daporinad + OSI-027; first compound 0.001581 µM)	relative viability (Daporinad + OSI-027; first compound 0.005 µM)	relative viability (Daporinad + OSI-027; first compound 0.01581 µM)
LOU-NH91	0.329	0.357	0.278	0.297	0.272	0.524	0.526	0.46	0.405	0.414	0.761	0.803	0.905	0.816	0.732	0.779	0.772	0.83
LU99A	0.232	0.27	0.244	0.172	0.221	0.368	0.296	0.357		0.211	0.31	0.281	0.377	0.307	0.33	0.282	0.358	0.305
LXF-289	0.629	0.733	0.713	0.447	0.405	0.724	0.799	0.845	0.634	0.268	1.01	1.14	1.19	1.19	0.731	0.855	0.89	0.89
NCI-H23	0.217	0.251	0.228	0.181	0.168	0.521	0.543	0.695	0.165	0.328	0.273	0.181	0.274	0.203	0.544	0.472	0.637	0.545
NCI-H322M	0.791	0.827	0.855	0.306	0.35	0.519	0.484	0.57	0.235	0.333	0.579	0.592	0.54	0.456	0.526	0.617	0.613	0.52
NCI-H358	0.313	0.555	0.492	0.147	0.136	0.336	0.323	0.319	0.272	0.228	0.473	0.584	0.506	0.67	0.664	0.794	0.886	0.77
NCI-H441	0.399	0.373	0.432	0.277	0.209	0.387	0.375	0.544	0.206	0.258	1.34	1.34	1.52	1.25	0.552	0.856	0.805	0.671
NCI-H460	0.0325	0.0281	0.0243	0.023	0.0248	0.33	0.426	0.38	0.224	0.259	0.646	0.587	0.64	0.629	0.754	0.762	0.73	0.697
NCI-H596	0.817	1.2	1.27	0.55	0.132	0.368	0.362	0.392	0.316	0.252	0.867	1.09	1.27	1.03	0.553	0.674	0.758	0.656
NCI-H647	0.235	0.191	0.348	0.128	0.123	0.437	0.402	0.418	0.276	0.147	0.428	0.749	0.573	0.514	0.583	0.598	0.647	0.735
NCI-H650	0.81	0.878	0.879	0.294	0.487	0.89	1.04	0.993	0.613	0.604	0.931	0.775	1.32	1.06	0.477	0.415	0.525	0.626
NCI-H727	0.351	0.521	0.345		0.323	0.386	0.508	0.354	0.175	0.252	0.757	0.466	0.513	0.439	0.603	0.606	0.622	0.519
NCI-H838	0.277	0.319	0.176	0.234	0.236	0.412	0.689	0.407	0.199	0.178	1.02	1.02	0.894	0.837	0.415	0.465	0.475	0.555
NCI-H1355	0.713	0.804	0.664	0.497	0.39	0.521	0.571	0.557	0.211	0.313	0.768	0.799	0.869	0.675	0.375	0.433	0.471	0.548
NCI-H1395	0.502	0.725	0.71	0.466	0.355	0.643	0.668	0.678	0.581	0.378	0.386	0.391	0.441	0.384	0.644	0.64	0.71	0.739
NCI-H1437	1.14	1.13	1.15	1.23	0.966	0.368	0.535	0.367	0.236	0.231	1.12	1.16	1.14	1.09	0.851	0.885	0.885	0.882
NCI-H1651	1.07	1.2	1.02	0.647	0.793	0.512	0.652	0.727	0.249	0.251	0.486	0.475	0.554	0.477	0.747	0.767	0.744	0.604
